The values below come from ChEMBL document CHEMBL5241112, “Insights into the recent progress in the medicinal chemistry of pyranopyrimidine analogs” (RSC Med Chem, 2022).

SMILES strings stand for the structures. Converted amounts (≈) assume the structure as drawn.

The target of series [1] is Polyunsaturated fatty acid 5-lipoxygenase (Homo sapiens, UniProt P09917). In words: Inhibition of 5-LOX (unknown origin) by colorimetric analysis.
A short description of series [2]: cells. To be noted: Homo sapiens, Macrophage.
Series [3] relates to Klebsiella pneumoniae. Description: Antimicrobial activity against Klebsiella pneumoniae ATCC 15380 assessed as diameter of inhibition zone at 20 mg/ml incubated for 24 hrs by disk diffusion method. To be noted: read-out: DIZ. The class given is functional.
For series [4], the system named is Salmonella typhimurium. Description: Antimicrobial activity against Salmonella typhimurium ATCC 19430 assessed as diameter of inhibition zone at 20 mg/ml incubated for 24 hrs by disk diffusion method. The class given is functional, Salmonella enterica subsp. enterica serovar Typhimurium. To be noted: Salmonella enterica, read-out: DIZ.
Series [5] has as its system Pseudomonas aeruginosa. Description: Antimicrobial activity against Pseudomonas aeruginosa ATCC 27853 assessed as diameter of inhibition zone at 20 mg/ml incubated for 24 hrs by disk diffusion method. The class given is functional. To be noted: read-out: DIZ.
The subject of series [6] is Citrobacter freundii. Description: Antimicrobial activity against Citrobacter freundii ATCC 8090 assessed as diameter of inhibition zone at 20 mg/ml incubated for 24 hrs by disk diffusion method. To be noted: read-out: DIZ. The class given is functional.
The subject of series [7] is Escherichia coli. Description: Antimicrobial activity against Escherichia coli ATCC 25922 assessed as diameter of inhibition zone at 20 mg/ml incubated for 24 hrs by disk diffusion method. The class given is functional. To be noted: read-out: DIZ.
The subject of series [8] is Penicillium italicum. Description: microbe, parasite or virus in culture. It counts as functional. To be noted: CECT 2294, dose 50 mg/ml, time 24 hrs, read-out: DIZ.
Series [9] concerns the target DNA gyrase (Escherichia coli, UniProt P0AES4+P0AES6). Description: Inhibition of Escherichia coli DNA gyrase. The class given is protein-complex assay.
The subject of series [10] is Aspergillus fumigatus. In words: microbe, parasite or virus in culture. The class given is functional. To be noted: ATCC204305, dose 50 mg/ml, time 24 hrs, read-out: DIZ.
Series [11] deals with Escherichia coli. In words: Antibacterial activity against Escherichia coli ATCC 25922 assessed as diameter of inhibition zone at 50 mg/ml incubated for 24 hrs by paper disk diffusion method. It counts as functional. To be noted: read-out: DIZ.
Series [12] concerns Aspergillus fumigatus. Description: Antifungal activity against Aspergillus fumigatus ATCC204305 assessed as inhibition of […] growth incubated for 24 hrs by disk diffusion method. It counts as functional.
The subject of series [13] is Klebsiella pneumoniae. In words: Antibacterial activity against Klebsiella pneumoniae MGH 78578 assessed as diameter of inhibition zone at 50 mg/ml incubated for 24 hrs by paper disk diffusion method. The class given is functional. To be noted: read-out: DIZ.
The nature of series [14]: Inhibition of Escherichia coli topoisomerase 4 assessed as reduction in decatenation.
For series [15], the system named is Staphylococcus epidermidis. In words: Antibacterial activity against Staphylococcus epidermidis ATCC12228 assessed as inhibition of bacterial growth incubated for 24 hrs by disk diffusion method. The class given is functional.
Series [16] is described as follows: Antioxidant activity assessed as trolox equivalent of ABTS radical scavenging activity and measured after 6 mins by UV-vis spectrophotometry. It counts as functional.
Series [17] has as its system HT-29. In words: Antiproliferative activity against human HT-29 cells assessed as reduction in cell viability by MTT assay. It counts as functional, cell-based.
Series [18] deals with MDA-MB-231. In words: cells. To be noted: Homo sapiens.
In series [19] the test system is PANC-1. Description: Antiproliferative activity against human PANC-1 cells assessed as reduction in cell viability by MTT assay. The class given is functional, cell-based.
Series [20] has as its system Aspergillus ochraceus. In words: Antifungal activity against Aspergillus ochraceus assessed as diameter of inhibition zone by disc diffusion method. It counts as functional.
Series [21] relates to Bacillus cereus. Description: Antibacterial activity against Bacillus cereus assessed as diameter of inhibition zone by disc diffusion method. It counts as functional.
For series [22], the system named is Penicillium chrysogenum. Description: Antifungal activity against Penicillium chrysogenum assessed as diameter of inhibition zone by disc diffusion method. The class given is functional.
The test system of series [23] is Serratia marcescens. Description: Antibacterial activity against Serratia marcescens assessed as diameter of inhibition zone by disc diffusion method. It counts as functional.
The test system of series [24] is Klebsiella pneumoniae. In words: Antibacterial activity against Klebsiella pneumoniae assessed as diameter of inhibition zone at 100 ug/ml by disc diffusion method. To be noted: read-out: DIZ. It counts as functional.
Series [25] has as its system Staphylococcus aureus. Description: Antibacterial activity against Staphylococcus aureus assessed as diameter of inhibition zone at 100 ug/ml by disc diffusion method. The class given is functional. To be noted: read-out: DIZ.
Series [26] has as its system Bacillus subtilis. In words: Antibacterial activity against Bacillus subtilis assessed as diameter of inhibition zone at 100 ug/ml by disc diffusion method. It counts as functional. To be noted: read-out: DIZ.
Series [27] deals with Streptococcus pneumoniae. In words: Antibacterial activity against Streptococcus pneumoniae ATCC BAA-255/R6 assessed as inhibition of bacterial growth incubated for 24 hrs by disk diffusion method. It counts as functional.
In series [28] the test system is Klebsiella pneumoniae. In words: Antibacterial activity against Klebsiella pneumoniae MTCC 109 assessed as diameter of inhibition zone at 0.1 mg/ml incubated for 24 hrs by agar well diffusion method. The class given is functional. To be noted: read-out: DIZ.
Series [29] relates to Staphylococcus aureus. In words: Antibacterial activity against Staphylococcus aureus MTCC 87 assessed as diameter of inhibition zone at 0.1 mg/ml incubated for 24 hrs by agar well diffusion method. It counts as functional. To be noted: read-out: DIZ.
The subject of series [30] is Pseudomonas aeruginosa. Description: Antibacterial activity against Pseudomonas aeruginosa MTCC 741 assessed as diameter of inhibition zone at 0.1 mg/ml incubated for 24 hrs by agar well diffusion method. The class given is functional. To be noted: read-out: DIZ.
For series [31], the system named is Escherichia coli. In words: Antibacterial activity against Escherichia coli MTCC 723 assessed as diameter of inhibition zone at 0.1 mg/ml incubated for 24 hrs by agar well diffusion method. The class given is functional. To be noted: read-out: DIZ.
Series [32] has as its system Escherichia coli. In words: Antibacterial activity against Escherichia coli assessed as diameter of inhibition zone at 100 ug/ml by disc diffusion method. It counts as functional. To be noted: read-out: DIZ.
Series [33] relates to Staphylococcus aureus. In words: Antibacterial activity against Staphylococcus aureus ATCC6538-P assessed as inhibition of bacterial growth incubated for 24 hrs by disk diffusion method. It counts as functional.
Series [34] deals with Plasmodium falciparum. Description: microbe, parasite or virus in culture.
The subject of series [35] is Escherichia coli. Description: Antibacterial activity against Escherichia coli MTCC 443 assessed as bacterial growth inhibition by broth microdilution method. The class given is functional.
In series [36] the test system is Mycobacterium tuberculosis. In words: Antitubercular activity against Mycobacterium tuberculosis H37Rv assessed as bacterial growth inhibition at 250 ug/ml. The class given is functional.
Series [37] deals with Mycobacterium tuberculosis. Description: Antimicrobial activity against Mycobacterium tuberculosis H37Rv assessed reduction bacterial growth at 100 ug/ml incubated for 24 hrs by Lowensteine-Jensen method. To be noted: dose 100 µg/ml. The class given is functional. Also on record: scale not given: the % may be the effect or the level left.
In series [38] the test system is Mycobacterium tuberculosis. In words: Antitubercular activity against Mycobacterium tuberculosis H37Rv assessed as bacterial growth inhibition at 100 ug/ml. The class given is functional.
In series [39] the test system is Staphylococcus aureus. In words: Antibacterial activity against Staphylococcus aureus assessed as diameter of inhibition zone by disc diffusion method. It counts as functional.
Series [40] in a line: Antioxidant activity assessed as DPPH radical scavenging activity incubated for 20 mins by spectrophotometric analysis. The class given is functional. More on the design: concentration or dose not given beside the values.
Series [41] can be described thus: Antioxidant activity assessed as hydroxyl radical scavenging activity incubated for 5 mins by spectrophotometric analysis. Also on record: concentration or dose not given beside the values. It counts as functional.
The species named for series [42] is Capra hircus. Description: Inhibition of goat lens AR at 100 uM incubated for 10 mins in presence of NADPH by spectroscopic analysis.
The species entered for series [43] is Capra hircus. In words: Inhibition of goat lens AR assessed as gibbs binding free energy.
Series [44] is described as follows: Cytotoxicity against human HDF cells assessed as reduction in cell viability by MTT assay. It counts as toxicity, cell-based. To be noted: HDF cells (NHDF cell line).

Sequence of Polyunsaturated fatty acid 5-lipoxygenase (P09917 whole entry): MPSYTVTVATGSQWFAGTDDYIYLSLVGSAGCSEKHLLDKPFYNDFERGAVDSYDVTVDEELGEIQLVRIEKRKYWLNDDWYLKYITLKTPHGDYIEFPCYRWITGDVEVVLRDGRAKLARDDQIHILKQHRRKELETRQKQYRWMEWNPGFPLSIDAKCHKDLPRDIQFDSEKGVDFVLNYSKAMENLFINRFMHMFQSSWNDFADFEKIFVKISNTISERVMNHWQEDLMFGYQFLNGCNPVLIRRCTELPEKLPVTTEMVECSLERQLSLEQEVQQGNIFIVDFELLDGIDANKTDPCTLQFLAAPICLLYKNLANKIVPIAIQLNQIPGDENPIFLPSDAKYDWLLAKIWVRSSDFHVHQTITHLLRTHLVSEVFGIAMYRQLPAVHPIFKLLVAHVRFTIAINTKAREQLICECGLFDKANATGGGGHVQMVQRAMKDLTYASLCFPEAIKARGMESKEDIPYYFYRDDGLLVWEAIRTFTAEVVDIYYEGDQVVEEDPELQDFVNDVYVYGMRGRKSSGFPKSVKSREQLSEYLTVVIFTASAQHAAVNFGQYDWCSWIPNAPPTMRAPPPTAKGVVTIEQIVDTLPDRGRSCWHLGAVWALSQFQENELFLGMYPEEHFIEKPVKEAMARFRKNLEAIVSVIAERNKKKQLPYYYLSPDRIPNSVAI

With `N#CC1=C(NC[C@]2(O)O[C@H](O)[C@@H](O)[C@@H](O)[C@H]2O)Oc2[nH]c(=S)[nH]c(=O)c2C1c1ccc(Cl)cc1` (stereo partly specified), the IC50 in series [1] was 1660 nM; in series [2], 3.23 µM.
As to `Cc1csc(C2C(C#N)=C(N)Oc3[nH]c(=O)[nH]c(=O)c32)c1` (stereo unspecified), the zone of inhibition at 20000 µg/mL in series [3] was 16 mm; in series [4] it was 20 mm; in series [5], 18 mm; in series [6] it was 12 mm; in series [7] it was 14 mm.
Regarding `Nc1nc(=S)[nH]c2c1C(c1ccc(Cl)cc1)C=C(c1cc3ccccc3oc1=O)O2` (stereo unspecified), the zone of inhibition at 50000 µg/mL in series [8] worked out at 16 mm; in series [10], 10 mm; in series [11] it was 10 mm; in series [13] it was 12 mm. Besides, the concentration for half-maximal inhibition (IC50) worked out at 4.91 nM in series [9] and 341 nM in [14]. Also, the figures for the MIC in series [12] and in series [15] were 15.5 µg/mL (≈ 35.6 µM) and 15.3 µg/mL (≈ 35.1 µM), respectively.
In the case of `CCOC(=O)C1=C(N)Oc2[nH]c(=O)[nH]c(=O)c2C1[C@H](O)[C@@H](O)[C@H](O[C@H]1O[C@H](CO)[C@@H](O)[C@H](O)[C@H]1O)[C@H](O)CO` (stereo partly specified), in [16], the Activity came to 5.24 µM.
In the case of `COc1cc([C@@H]2c3cc4c(cc3[C@@H](O[C@@H]3O[C@@H]5CO[C@@H](C)O[C@H]5[C@H](O)[C@H]3O)[C@H]3COC(=O)[C@H]23)OCO4)cc(OC)c1O` [ETOPOSIDE], the half-inhibitory concentration (IC50) in series [17] amounted to 25.6 µM; in series [18], 30.6 µM; in [19], 24.4 µM.
Regarding `CCOC(=O)c1nc2c3c(ncn2n1)Oc1ccc2cc(Br)ccc2c1C3`, the “diameter of the inhibition zone (DIZ)” value was found to be 17 mm in series [20], 23 mm in series [21], 22 mm in [22] and 24 mm in series [23].
In the case of `CC1(C)S[C@@H]2[C@H](NC(=O)[C@H](N)c3ccc(O)cc3)C(=O)N2[C@H]1C(=O)O` [AMOXICILLIN], the zone of inhibition at 100 µg/mL in [24] worked out at 18 mm; in series [25], 17.5 mm; in series [26], 15.5 mm; in series [28], 13.6 mm; in [29], 13.8 mm; in series [30] it was 15 mm. Further, the zone of inhibition at 100 µg/mL in series [31] was 14.9 mm; in series [32], 19.5 mm. The minimal inhibitory concentration (MIC) amounted to 7.8 µg/mL (≈ 21.3 µM) in [27], 15.6 µg/mL (≈ 42.7 µM) in series [12] and 31.3 µg/mL (≈ 85.7 µM) in series [33]. For the same compound, the zone of inhibition at 50000 µg/mL in series [11] is 24 mm; in [13], 15 mm.
Consider `N=c1c2c(ncn1-c1ccccc1)Oc1[nH]c(=S)[nH]c(=O)c1C2c1ccc(Cl)cc1` (stereo unspecified), for which the figures for the IC50 in [1] and in [2] were 1930 nM and 3.5 µM, respectively.
As to `CCOC(=O)C1=C(N)Oc2[nH]c(=O)[nH]c(=O)c2C1c1c(C)nn(-c2ccccc2)c1-n1ccnc1` (stereo unspecified), the IC50 in [34] was found to be 0.97 µg/mL (≈ 2.04 µM). In series [35], the MIC was determined as 100 µg/mL (≈ 210 µM). For the same compound, the inhibition at 250 µg/mL in series [36] is 37%. Further, the Activity in [37] was 92%. Besides, the inhibition at 100 µg/mL in [38] turned out to be 30%.
In the case of `N#CCc1nc2c3c(ncn2n1)Oc1ccc2cc(Br)ccc2c1C3`, the “diameter of the inhibition zone (DIZ)” value in series [20] is on record as 17 mm; in series [39] it was 25 mm; in [22], 13 mm; in series [23], 23 mm.
For `Cc1nn(-c2ccccc2)c(Cl)c1C1c2[nH]c(=O)[nH]c(=O)c2Oc2c1c(=O)oc1ccccc21` (stereo unspecified), the Activity stood at 59.1% in series [40] and 54.3% in [41]. Further, in [42], the inhibition is 60%. In [43], the deltaG was -10.4 kcal/mol.
Consider `N#CC1=C(N)Oc2[nH]c(=O)[nH]c(=O)c2C12c1cc(Br)ccc1-n1c2nc2ccccc2c1=O` (stereo unspecified), for which the IC50 in series [44] was more than 100 µM; in series [18] it was 10.9 µM; in series [19] (read-out: IC50), 14.2 µM.
Regarding `N#CC1=C(N)Oc2[nH]c(=O)[nH]c(=O)c2C12c1ccccc1-n1c2nc2ccccc2c1=O` (stereo unspecified), the IC50 in [17] is 23.7 µM; in series [44], more than 100 µM.
